According to US6268537A, “Method of synthesis of lithium substituted borohydride reagents and method of synthesis of reactive lithium hydride” (priority 1999, dated 2001):

Experiment: solubility of LiH in THF
Conditions: room temperature

[H-].[Li+] [LiH, lithium hydride]
solubility of LiH in THF: less than 0.00089 mol per liter
